# Assay results published in PubChem BioAssay (NCI).
# Values joined by “and” are separate entries in the source; they are usually repeats but may differ in a detail not shown here. Equal entries are not always repeated.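 These data come from cells grown in 96-well plates and exposed to compound for 48 hours at five concentrations. The concentration for 50% growth inhibition is given as GI50. TGI marks complete inhibition of growth.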 Where a SMILES comes first, the peptide text is derived from it. [ ]: non-standard residue; d: D form. pGlu = O=C1CC[CH](C(=O)O)N1
# Tests used:
# Test in all cases: growth of human tumour cells (NCI), 48 h
# 786-0 renal = system: 786-0 renal
# A498 renal = system: A498 renal
# COLO 205 colon = system: COLO 205 colon
# OVCAR-4 ovarian = system: OVCAR-4 ovarian
# OVCAR-8 ovarian = system: OVCAR-8 ovarian
# SR leukemia = system: SR leukemia
# SW-620 colon = system: SW-620 colon
# TK-10 renal = system: TK-10 renal
Compound,TGI (786-0 renal) [µM],TGI (A498 renal),TGI (COLO 205 colon) [µM],TGI (OVCAR-4 ovarian) [µM],TGI (OVCAR-8 ovarian) [µM],TGI (SR leukemia) [µM],TGI (SW-620 colon),TGI (TK-10 renal) [µM],GI50 (786-0 renal) [µM],GI50 (SR leukemia) [µM],GI50 (TK-10 renal) [µM],GI50 (A498 renal),GI50 (COLO 205 colon) [µM],GI50 (OVCAR-4 ovarian) [µM],GI50 (OVCAR-8 ovarian) [µM],GI50 (SW-620 colon)
O=C(Nc1ccc([As](=O)(O)O)cc1)Nc1cccc(Cl)c1Cl,> 100,> 100 µM,> 100,> 100,> 100,> 100,> 100 µM,> 100,,,,,,,,
O.O.[NH-]C1(C(=O)O)CCCC1.[NH-]C1(C(=O)O)CCCC1.[Ni+2],> 100,> 100 µM,> 100,> 100,> 100,> 100,> 100 µM,> 100,> 100,65.9,> 100,,,,,
CCN(Cc1cc(Nc2nc(C)cn3c(-c4cn[nH]c4)cnc23)sn1)C(C)(C)CO,2.73,0.0163 µM,0.132,8.38,11,1.64,5.08 µM,2.24,0.0473,< 0.01,0.0507,< 0.01 µM,< 0.01,< 0.0108,0.0411,< 0.0107 µM
C[C@]12CC[C@@H]3c4ccc(OC(=O)N(CCCl)CCCl)cc4CC[C@H]3[C@@H]1CC[C@@H]2O,13.7,9 µM,8.94,39.5,,1.42,,9.98,2.83,0.135,3.04,1.6 µM,2.99,4.36,3.85,1.58 µM
CC[C@@H]1c2c(C#N)ncn2-c2cnc(Nc3ccc(C(=O)NC4CCN(C5CCN(CC6CC6)CC5)CC4)cc3OC)nc2N1C1CCCC1,1.2,1.17 µM and 1.57 µM,,1.7,,1.02,1.76 µM and 1.78 µM,2.23,0.164,0.0387,1.03,0.174 µM and 0.308 µM,,0.214,,0.0308 µM and 0.0327 µM
CCOC(=O)Nc1ccc2c(c1)/C(=N\NC(N)=S)c1ccccc1-2,9.08,8.18 µM,15,39.1,13.8,24.3,32.6 µM,> 68.5,3.06,3.13,15.2,2.39 µM,3.74,4.39,3.77,5.91 µM
CCOC(=O)c1c(C)nc2c(c1N)CC(=O)N2Cc1ccc(OC)cc1,27.8,,> 100,> 100,> 100,> 100,> 100 µM,> 100,3.45,63.1,5.12,,> 100,> 100,5.42,> 100 µM
COc1cc(C(O)CCBr)c(OC)cc1C (configuration not stated),> 100,> 100 µM,> 57,> 100,> 46.8,> 31.6,> 100 µM,> 100,,,,,,,,
O=C1C(Cl)=C(Nc2cccc(F)c2)C(=O)N1Cc1ccc(Cl)cc1,3.98,8.99 µM,11.9,24.6,8.83,,13 µM,19.3,0.305,0.128,5.7,2.42 µM,0.516,4.04,0.759,0.531 µM
O=c1[nH]c(=O)c2cn[nH]c2[nH]1,> 100,> 100 µM,> 100,> 100,> 100,> 100,> 100 µM,> 100,> 100,> 100,> 100,> 100 µM,> 100,> 100,> 100,> 100 µM
C=CCN=c1sc2c(n1NC(=O)c1cc3ccc1CCc1ccc(cc1)CC3)C(=O)c1ccccc1C2=O,5.7,47 µM,4.24,2.56,11.2,> 100,3.45 µM,8.14,2.3,1.78,4.48,10.5 µM,1.94,1.26,2.13,1.63 µM
COC12C=C/C(=C(/C(=O)OCc3cncnc3)C(=O)CCCCCCCCC3(OC)C=C/C(=C(/C(=O)OCc4cncnc4)C(=O)CCCCCCCC1)O3)O2,1.47,1.7 µM,2.25,2.81,> 50,6.61,1.19 µM,1.93,0.433,0.155,0.689,0.961 µM,0.587,0.548,0.207,0.19 µM
COc1cc(/C=C\c2cc(OC)c(OC)c(OC)c2)cc(NC(=O)/C=C/c2cc(OC)c(OC)c(OC)c2)c1OC,> 100,> 100 µM,> 100,> 100,> 100,> 100,> 100 µM,> 100,6.22,0.23,6.72,5.21 µM,4.2,3.86,6.68,5.89 µM
O=c1[nH]nnc2c1ncn2C1OC(CO)C(O)C1O (configuration not stated),> 100,> 100 µM,> 100,> 100,> 100,59.7,> 100 µM,> 100,24,3.21,2.98,61.3 µM,6.09,5.02,4.73,10.6 µM
CCCCON(OC(=O)c1ccc2ccccc2c1)C(=O)c1ccccc1,> 100,> 100 µM,> 100,> 100,> 100,77.1,> 100 µM,> 100,73.4,31.5,> 100,> 100 µM,> 100,> 100,> 100,36.3 µM
O=C1C(Cl)=C(Nc2cccc(Cl)c2)C(=O)N1Cc1ccc(Cl)cc1,5.48,11.9 µM,18.2,> 64.2,18.5,,9.97 µM,15.4,0.186,0.215,3.37,1.55 µM,1.46,4.68,0.833,0.323 µM

Compound,TGI (786-0 renal) [µM],TGI (A498 renal),TGI (COLO 205 colon) [µM],TGI (OVCAR-4 ovarian) [µM],TGI (OVCAR-8 ovarian) [µM],TGI (SR leukemia) [µM],TGI (SW-620 colon),TGI (TK-10 renal) [µM],GI50 (786-0 renal) [µM],GI50 (SR leukemia) [µM],GI50 (TK-10 renal) [µM],GI50 (A498 renal),GI50 (COLO 205 colon) [µM],GI50 (OVCAR-4 ovarian) [µM],GI50 (OVCAR-8 ovarian) [µM],GI50 (SW-620 colon)
CC(C)Cn1cnc2c(SCc3ccc(Cl)cc3Cl)nc(N)nc21,> 100,49.5 µM,24.6,> 100,93.3,25.8,> 100 µM,> 100,,,,,,,,
CCNC(=O)C1CCCN1C(=O)C(CCCN=C(N)N)NC(=O)C(CC(C)C)NC(=O)C(CC(C)C)NC(=O)C(Cc1ccc(O)cc1)NC(=O)C(CO)NC(=O)C(Cc1c[nH]c2ccccc12)NC(=O)C(Cc1cnc[nH]1)NC(=O)C1CCC(=O)N1 (configuration not stated) ([pGlu]HWSYLLRP-NHEt; configuration not given here),> 100,> 100 µM,> 100,> 100,> 100,> 100,> 100 µM,> 100,> 100,> 100,> 100,> 100 µM,> 100,> 100,> 100,> 100 µM
Oc1c(-c2nnc(-c3ccccc3Cl)o2)sc2nnc(-c3ccccc3)c(-c3ccccc3)c12,> 100,41.7 µM,> 100,> 100,> 100,> 100,25.3 µM,83.7,7.22,3.96,5.39,7.35 µM,4.4,4.49,3.72,4.07 µM
O=C(CCCCCCNC(=O)c1cnc(N(c2ccccc2)c2ccccc2)nc1)NO,> 73.1,14.8 µM,4.1,72.9,> 100,> 100,> 29.7 µM,12.5,6.18,1.22,2.07,2.5 µM,1.79,5.56,2.25,1.94 µM
ClCc1cccc2c(CCl)cccc12,18.9,23.7 µM,7.14,75.7,33.6,> 100,19.1 µM,7.46,3.93,0.901,2.28,11 µM,2.4,12,4.29,3.4 µM
CN(CCO)CC[C@H](CSc1ccccc1)Nc1ccc(S(=O)(=O)NC(=O)c2ccc(N3CCC([C@@H](O)c4ccccc4-c4ccc(Cl)cc4)CC3)cc2)cc1S(=O)(=O)C(F)(F)F,10.1,0.252 µM,4.5,> 100,> 100,35.7,8.91 µM,19.2,3.62,2.23,5.2,0.0288 µM,1.46,17.6,11.5,2.43 µM
Cc1c[n+](=O)c2ccccc2n1[O-],> 100,> 100 µM,> 100,> 100,> 100,> 100,> 100 µM,> 100,,,,,,,,
COC(=O)C1CC23CCCN4CCC5(c6ccccc6N(C=O)C15CC2)C43 (configuration not stated),> 100,> 100 µM,> 100,> 100,> 100,> 100,> 100 µM,> 100,,,,,,,,
COc1ccc(C(=S)N2CCN(c3cccc(C)c3)CC2)cc1OC,> 100,> 100 µM,> 100,> 100,> 100,> 100,> 100 µM,> 100,7.54,1.53,7.99,4.85 µM,3.88,57.7,8.47,3.04 µM
COc1ccc(-c2nn(-c3cccc(Cl)c3)cc2-c2cc(-c3cccs3)[nH]c(=S)n2)cc1,> 100,17 µM,5.59,> 100,> 100,31.9,22.3 µM,32.8,4.18,4,4.55,3.01 µM,2.35,3.47,3.15,3.79 µM
CCN1C(=O)N(CC)C2C1NN=c1s/c(=C\c3cccc(F)c3)c(=O)n12 (configuration not stated),> 100,0.184 µM,4.92,> 100,> 100,> 100,> 100 µM,> 100,0.657,0.044,27.2,< 0.0184 µM,0.243,5.37,0.345,0.0845 µM
CCN(Cc1ccc(Cl)cc1)c1ccc(CO)c(Cl)c1,13.3,0.153 µM,8.57,11.3,21,51.5,16.4 µM,0.379,2.19,17.7,0.0786,0.0311 µM,2.2,0.543,3.62,0.824 µM
CCOc1cccc(/C=N/N=C2\C(=O)Nc3c(Cl)cc(Cl)cc32)c1O,> 100,> 100 µM,> 100,> 100,> 100,> 100,> 100 µM,> 100,,,,,,,,
COc1ncnc2c(-c3ccccc3)cn(COCc3ccccc3)c12,> 100,10.1 µM,7.73,9.5,11.7,43.2,> 100 µM,> 100,4.55,2.79,4.05,1.96 µM,2.69,2.26,3.02,4.6 µM
N=C1C(c2nc3ccccc3s2)=C(O)CN1c1ccc(F)c(Cl)c1,57.1,73.2 µM,> 100,> 100,33.4,6.33,> 100 µM,> 100,22.7,0.666,22.7,31.2 µM,> 100,20.5,12.6,58.7 µM
N#Cc1ccc(OCc2nc(N)nc(N)c2-c2ccc(Cl)c(Cl)c2)cc1,> 100,10.8 µM,> 100,> 100,54.5,66.2,> 100 µM,,1.48,4.03,,1.43 µM,4.02,6.43,0.621,0.484 µM
